PMC9920413, “New Bicyclic Pyridine-Based Hybrids Linked to the 1,2,3-Triazole Unit: Synthesis via Click Reaction and Evaluation of Neurotropic Activity and Molecular Docking” (Molecules, 2023)

Assays:
[1] = Rotating rod test (neurotoxicity, myorelaxation); type: in vivo; conditions: outbred, mouse, in vivo, ip, mice, myorelaxation in 50% of animals
Experimental: (§1) The study of the anticonvulsant activity of hybrids 7a–u was assessed by evaluating the antagonism to pentylenetetrazole (PTZ), thiosemicarbazide convulsive seizures, and maximal electroshock-induced seizures (MES). The PTZ-induced test is considered an experimental model for the clonic component of epilepsy seizures and the prognostic anxiolytic activity of the compounds. PTZ is a common convulsive agent used in animal models to investigate the mechanisms of seizures. The model of thiosemicarbazide (TSC) seizures (affecting the exchange of GABA) causes clonic seizures similar to pentylenetetrazole ones. The MES test is used as an animal model for the generalization of tonic seizures in epilepsy. The neurotoxicity and side effects of the compounds (movement coordination disorder, myorelaxation, and ataxia) were also studied on mice with the “rotating rod”[29] test.
(§2) Adverse neurotoxic (muscle relaxant) effects of compounds were studied at doses of 50 to 500 mg/kg when administered intraperitoneally, as well as reference drugs in effect at anticonvulsant doses. Myorelaxation was investigated with the test of a “rotating rod” in mice. To this end, mice were planted on a metal rod with a corrugated rubber coating, which rotated at a speed of 5 revolutions per minute. The number of animals that cnot stay on it for 2 min was determined. To determine the ED50, neurotoxic TD50, and LD50, the statistical method of penetration by Litchfield and Wilcoxon was used.

[2] = test system: mice; test: Forced swimming test; conditions: 50 mg/kg, 6 min; for Total Time of Immobilization: control 42.0 ± 7.24; for Total Time of Active Swimming: control 318.0 ± 8.36;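 for all read-outs here: mice made to swim in a water-filled glass vessel under natural light, with durations of active swimming and immobility recorded across the 6 min session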
Experimental: Forced swimming test. To assess “despair and depression”, the “compelling swimming” model was used. Experimental animals were forced to swim in a glass container (height 22 cm, diameter 14 cm), filled 1/3 with water. […] The latent period of immobilization, the total duration of active swimming and immobilization are fixed at 6 min (the experiments were conducted under natural light).

[3] = test system: thiosemicarbazide (TSC)-induced convulsions; test: Thiosemicarbazide (TSC) seizures; type: in vivo, mice; conditions: mice; for response vs control in vivo at 100 mg/kg: Mus musculus, ip, compound 100 mg/kg i.p., relative to control = 1.0, read-out: Latency of Convulsions, Induced by TSC, I (index of latent period of TSC seizures); for Latency of Convulsions, Induced by TSC, M ± M: compound 100 mg/kg i.p. 45 min before TSC 18 mg/kg s.c.
Experimental: as §1
Thiosemicarbazide, an antimetabolite of GABA inhibitor (glutamic acid decarboxylase) in the brain, is administered subcutaneously to mice at a dose of 18 mg/kg as a 0.5% solution, which causes clonic convulsions in animals. Anti-thiosemicarbazide activity was evaluated based on the latency time of the onset of seizures. Compounds were administered intraperitoneally at doses of 100 mg/kg in suspension with carboxymethylcellulose and Tween-80 45 min before administration of thiosemicarbazide.

[4] = test system: pentylenetetrazole (PTZ)-induced convulsions; test: Antagonism to pentylenetetrazole (PTZ) convulsions; type: in vivo; conditions: for ED50: Mus musculus, mice, i.p. 45 min before PTZ 90 mg/kg s.c., confidence limits in brackets, p = 0.05, read-out: ED50 (by PTZ antagonism); for TI: therapeutic index TI = LD50/ED50
Experimental: as §1
The anticonvulsant effect of the newly synthesized compounds was investigated by tests comprising pentylenetetrazole, thiosemicarbazide convulsions, and maximal electroshock (MES). Outbred mice (weight 18–22 g) were used for the study. […] Each animal is placed into an individual plastic cage for observation lasting 1 h. Seizures and clonic convulsions were recorded. […] The control animals were administered as an emulsifier. Every dose of each test compound was studied in six animals.
as §2

[5] = test system: mouse; test: Elevated plus maze (EPM) test; type: in vivo; conditions: 50 mg/kg i.p., 5 min; for Time Spent in the Open Arms: control 2.6 ± 1.6; for Number of Entries into the Closed Arms: control 9.4 ± 1.6; for Time Spent in the Center: control 28.2 ± 3.12; for Time Spent in Closed Arms: control 269.2 ± 10.4
Description: Elevated plus maze—EPM test. Anti-anxiety and sedative effects were studied on mouse a model of the “elevated plus maze”. The labyrinth is a cruciform machine raised above the floor, with a pair of open and closed sleeves opposed to each other. Normal animals prefer to spend most of their time in the closed (dark) sleeves of the labyrinth. The anxiolytic effect of the compounds was estimated by the increase in the number of entries into open (light) sleeves and the time spent in them without increasing the total motor activity. This records the time spent in the closed sleeve and the number of attempts to enter the installation center. In the above model, the test compounds and the reference drug were injected intraperitoneally before the experiments. The control animals were administered as an emulsifier. Results were processed statistically (p < 0.05).

[6] = in vivo; conditions: outbred, mouse, in vivo; mice, dead animals after 24 h
Experimental: as §2

[7] = test system: rats; test: Open field test; type: in vivo; conditions: 50 mg/kg i.p.; for Cells Examination, amount (absolute data during 5 min): control 2.4 ± 0.67; for Vertical Displacement, amount (absolute data during 5 min): control 7.0 ± 2.14; for Horizontal Displacement, amount (absolute data during 5 min): control 21.6 ± 2.25
Experimental: Open field test. The research-motor behavior of rats was studied on a modified “open field” model. For this purpose, an installation was used, the bottom of which is divided into squares with holes (cells). Experiments were performed in the daytime with natural light. Within 5 min of the experiment, the indicators of sedative and activating behavior were determined, namely the number of horizontal movements, standing on the hind legs (vertical movements), and sniffing of the cells. The number of animals on this model was eight for each compound, control, and reference drug.

[8] = test system: rats; test: Electroshock retrograde amnesia, conditioned response of passive avoidance (CRPA); type: in vivo; conditions: 1000 mg/kg, study for 5 min
Experimental: Test for learning and memory. The antiamnesic properties of the compounds were studied using an electroshock amnesia model modified by J. Bures, O. Buresova. In rats, a conditioned passive avoidance reaction (CRPA) to a dark-light setting was developed, while the training of the animals with CRPA was recorded. The residence times in the light and dark compartments were recorded for 5 min (300 s). Then, in the dark compartment, the animal received a single current shock (0.4 mA) through the electrode floor (training). To obtain amnesia, a maximum electroconvulsive seizure is induced in animals (conducting a maximum electric current of 50 Hz for 0.2 s through corneal electrodes). Conducting an electric shock immediately after training causes the erasure of the memory trace. The test for reproduction is carried out 24 h after training—after the development of CRPA. During this period, the control animals forget the training and prefer to be in the dark part of the chamber. An increase in the time spent by rats in the light compartment compared to the control on the second day indicates the presence of antiamnestic properties of the compounds.

Row | Compound | TD50 at 2 min [1] | Total Time of Immobilization [2] | Total Time of Active Swimming [2] | response vs control in vivo at 100 mg/kg [3] | Latency of Convulsions, Induced by TSC, M ± M [3] | ED50 [4] | TI [4] | Time Spent in the Open Arms [5] | Number of Entries into the Closed Arms [5] | Time Spent in the Center [5] | Time Spent in Closed Arms [5] | LD50 at 24 h [6] | Cells Examination, amount (absolute data during 5 min) [7] | Vertical Displacement, amount (absolute data during 5 min) [7] | Horizontal Displacement, amount (absolute data during 5 min) [7] | The Time Spent in the Light Chamber When Playing CRPA + MESH after 24 h, Second Day [8] | The Time Spent in the Light Chamber during the Training of the CRPA, First Day [8]
1 | CCCc1nc(N2CCN(C(=O)Cn3cc(COc4nc(C(C)C)c5c(c4C#N)CCC5)nn3)CC2)c(C#N)c2c1COC(C)(C)C2 [7c, 6-{4-[(4-{[(4-Cyano-1-isopropyl-6,7-dihydro-5H-cyclopenta[c]pyridin-3-yl)oxy]methyl}-1H-1,2,3-triazol-1-yl)acetyl]piperazin-1-yl}-3,3-dimethyl-8-propyl-3,4-dihydro-1H-pyrano [3,4-c]pyridine-5-carbonitrile] | > 500 mg/kg | 10.0 ± 4.1 s | 350.0 ± 11.62 s | 250% | 25.0 ± 4.1 min | 35 mg/kg | 18.6 | 10.6 ± 2.1 s | 2.6 ± 1.4 | 45.4 ± 4.7 s | 244.0 ± 10.67 s | 650 mg/kg | 4.2 ± 0.56 | 6.2 ± 1.03 | 57.2 ± 12.85 |  | 
2 | CCc1nc(N2CCN(C(=O)Cn3cc(COc4nc(C(C)C)c5c(c4C#N)CCCC5)nn3)CC2)c(C#N)c2c1COC(C)(C)C2 [7h] | > 500 mg/kg | 2.0 ± 0.8 s | 358.0 ± 8.2 s | 150% | 15.2 ± 1.2 min | 27 mg/kg | 26.7 | 30.0 ± 2.4 s | 4.8 ± 1.34 | 28.4 ± 2.38 s | 246.6 ± 21.9 s | 720 mg/kg | 6.8 ± 3.12 | 6.0 ± 0.89 | 63.8 ± 14.02 |  | 
3 | CCCc1nc(N2CCN(C(=O)Cn3cc(COc4nc(C)c5c(c4C#N)CC(C)(C)OC5)nn3)CC2)c(C#N)c2c1COC(C)(C)C2 [7o] | > 500 mg/kg | 2.0 ± 0.4 s | 358.0 ± 12.0 s | 304% | 30.4 ± 1.1 min | 28 mg/kg | 28.6 | 10.0 ± 2.78 s | 5.8 ± 1.03 | 61.0 ± 3.68 s | 229.0 ± 11.2 s | 800 mg/kg | 8.6 ± 3.25 | 9.6 ± 3.89 | 73.0 ± 13.37 |  | 
4 | CCc1nc(OCc2cn(CC(=O)N3CCN(c4nc(CC)c5c(c4C#N)CC(C)(C)OC5)CC3)nn2)c(C#N)c2c1COC(C)(C)C2 [7q, 6-{4-[(4-{[(5-Cyano-8-ethyl-3,3-dimethyl-3,4-dihydro-1H-pyrano [3,4-c]pyridin-6-yl)oxy]methyl}-1H-1,2,3-triazol-1-yl)acetyl]piperazin-1-yl}-8-ethyl-3,3-dimethyl-3,4-dihydro-1H-pyrano [3,4-c]pyridine-5-carbonitrile] | > 500 mg/kg | 24.0 ± 2.9 s | 336.0 ± 25.3 s | 220% | 22.0 ± 2.2 min | 42 mg/kg | 18.8 | 24.0 ± 2.5 s | 5.0 ± 2.19 | 50.8 ± 3.4 s | 225.2 ± 13.87 s | 790 mg/kg | 7.4 ± 2.42 | 8.8 ± 1.61 | 60.2 ± 4.61 |  | 
5 | CCCc1nc(N2CCN(C(=O)Cn3cc(COc4nc(CC)c5c(c4C#N)CC(C)(C)OC5)nn3)CC2)c(C#N)c2c1COC(C)(C)C2 [7r, 6-[(1-{2-[4-(5-Cyano-3,3-dimethyl-8-propyl-3,4-dihydro-1H-pyrano [3,4-c]pyridin-6-yl)piperazin-1-yl]-2-oxoethyl}-1H-1,2,3-triazol-4-yl)methoxy]-8-ethyl-3,3-dimethyl-3,4-dihydro-1H-pyrano [3,4-c]pyridine-5-carbonitrile] | > 500 mg/kg | 36.0 ± 5.55 s | 324.0 ± 18.55 s | 394% | 39.4 ± 1.11 min | 26 mg/kg | 27.3 | 7.0 ± 2.59 s | 3.4 ± 1.59 | 83.0 ± 5.1 s | 210.4 ± 10.3 s | 710 mg/kg | 4.4 ± 1.89 | 2.2 ± 1.36 | 30.0 ± 2.48 |  | 
6 | CCCc1nc(OCc2cn(CC(=O)N3CCN(c4nc(CCC)c5c(c4C#N)CC(C)(C)OC5)CC3)nn2)c(C#N)c2c1COC(C)(C)C2 [7u, 6-{4-[(4-{[(5-Cyano-3,3-dimethyl-8-propyl-3,4-dihydro-1H-pyrano [3,4-c]pyridin-6-yl)oxy]methyl}-1H-1,2,3-triazol-1-yl)acetyl]piperazin-1-yl}-3,3-dimethyl-8-propyl-3,4-dihydro-1H-pyrano [3,4-c]pyridine-5-carbonitrile] | > 500 mg/kg | 84.0 ± 12.5 s | 276.0 ± 26.0 s | 438% | 43.8 ± 1.03 min | 32 mg/kg | 21.3 | 20.0 ± 3.12 s | 4.4 ± 2.1 | 36.2 ± 2.38 s | 243.8 ± 20.7 s | 680 mg/kg | 2.2 ± 1.03 | 3.6 ± 0.67 | 41.8 ± 6.12 |  | 
7 | NC(=O)CN1CCCC1=O [Piracetam, piracetam, reference compound] |  |  |  |  |  |  |  |  |  |  |  |  |  |  |  | 243.7 ± 8.4 s | 158.0 ± 5.9 s
